The values below are quoted from earlier work in PMC6838683, “Discovery of Human Signaling Systems: Pairing Peptides to G Protein-Coupled Receptors” (Cell, 2019).

Structures are written as SMILES. Like-named read-outs stand apart in the source and are kept apart here.

The subject of the series is human GPCRs. On the set-up: method as in Guide to Pharmacology database. As to conditions: max reported value, ref Guide to Pharmacology database, cited from earlier work. From the text: Supplement mmc1.xlsx, sheet "HumanGPCRLigands" | column: pKi_value; pKd_value; pEC50_value; pIC50_value
Where [1] appears, read: receptor p2ry2_human (P2RY2), P2Y receptors.
The mark [2] stands for this setting: receptor p2ry4_human (P2RY4), P2Y receptors.
Where [3] appears, read: receptor p2y11_human (P2RY11), P2Y receptors.
The mark [4] stands for this setting: receptor gp183_human (GPR183), Class A orphans.
[5] abbreviates: receptor LTB4R2 (lt4r2_human, Q9NPC1).
[6] abbreviates: receptor LTB4R (lt4r1_human, Q15722).
[7] abbreviates: receptor p2ry1_human (P2RY1), P2Y receptors.
Where [8] appears, read: receptor p2y13_human (P2RY13), P2Y receptors.
The mark [9] stands for this setting: receptor grm2_human (GRM2, Q14416).
The mark [10] stands for this setting: receptor grm3_human (GRM3, Q14832).
Where [11] appears, read: receptor grm7_human (GRM7, Q14831).
Setting [12] is: receptor grm8_human (GRM8, O00222).
Setting [13] is: receptor CYSLTR1 (cltr1_human, Q9Y271).
The mark [14] stands for this setting: receptor CYSLTR2 (cltr2_human, Q9NS75).
Where [15] appears, read: receptor fpr2_human (FPR2, P25090).
Setting [16] is: receptor PTAFR (ptafr_human, P25105).
Where [17] appears, read: receptor PTGDR2 (pd2r2_human, Q9Y5Y4).
Setting [18] is: receptor PTGDR (pd2r_human, Q13258).
Setting [19] is: receptor pe2r2_human (PTGER2), Prostanoid receptors.
Setting [20] is: receptor pe2r4_human (PTGER4), Prostanoid receptors.
[21] abbreviates: receptor pf2r_human (PTGFR), Prostanoid receptors.
Setting [22] is: receptor pe2r1_human (PTGER1), Prostanoid receptors.
Where [23] appears, read: receptor pe2r3_human (PTGER3), Prostanoid receptors.
Setting [24] is: receptor ta2r_human (TBXA2R), Prostanoid receptors.

With `O=c1ccn([C@@H]2O[C@H](CO[P@@](=O)(O)O[P@@](=O)(O)OP(=O)(O)O)[C@@H](O)[C@H]2O)c(=O)[nH]1` (stereo in doubt) [uridine triphosphate], the pEC50_value under setting [1] is 8.1; the pEC50_value under setting [2] is on record as 6.3; the pEC50_value (receptor p2ry6_human (P2RY6), P2Y receptors) is 5.2; the pEC50_value under setting [3] is listed as 5.2.

With `CCCCCC(O)CC(=O)O` (centres unmarked) [3-hydroxyoctanoic acid], the pEC50_value (receptor hcar3_human (HCAR3), Hydroxycarboxylic acid receptors) is 5.1.

Consider `CCCCCCCC/C=C\C/C=C\C=C/C(=O)CCCC(=O)O` [5-oxo-C20:3], for which the pEC50_value (receptor OXER1 (oxer1_human, Q8TDS5)) was 8.

For `C[C@H](CCCC(C)(C)O)[C@H]1CC[C@H]2[C@@H]3[C@H](O)C=C4C[C@@H](O)CC[C@]4(C)[C@H]3CC[C@]12C` [7α,25-dihydroxycholesterol], under setting [4], the pEC50_value is recorded as 9.9 and the pIC50_value is 9.6.

In the case of `CCCCCC(O)C=CC=CCC=CCCCC(=O)O` (centres unmarked) [12-hydroxyheptadecatrienoic acid], under setting [5], the pEC50_value is reported as 7.7 and the pIC50_value is 8.6.

As to `C[C@]12CC[C@@H]3c4ccc(O)cc4CC[C@H]3[C@@H]1CC[C@@H]2O` [17β-estradiol], where the note is “receptor gper1_human (GPER1), Estrogen (G protein-coupled) receptors”, the pKi_value is on record as 8.5.

As for `O=C(O)CCC[C@H](O)\C=C/C=C/C=C/[C@H](O)C/C=C\CCCCCO` [20-hydroxy-LTB4], the pKi_value under setting [6] is on record as 8.1.

On to `NC[C@H](O)c1ccc(O)c(O)c1` [(-)-noradrenaline], for which the pKi_value by setting is: (receptor ada1a_human (ADRA1A, P35348)) 6.4; (receptor ada1b_human (ADRA1B, P35368)) 6.2; (receptor ada1d_human (ADRA1D, P25100)) 7.4; (receptor ada2a_human (ADRA2A, P08913)) 7.4; (receptor ada2b_human (ADRA2B, P18089)) 6; (receptor ada2c_human (ADRA2C, P18825)) 6.8. Further, the pKi_value (receptor adrb1_human (ADRB1, P08588)) is reported as 6; the pKi_value (receptor adrb2_human (ADRB2, P07550)) is listed as 4.8; the pKi_value (receptor adrb3_human (ADRB3, P13945)) is given as 6.3.

With `Nc1ncnc2c1ncn2[C@@H]1O[C@H](COP(=O)(O)OP(=O)(O)O)[C@@H](O)[C@H]1O` [ADP], the pIC50_value under setting [7] was 7.2 and the pIC50_value under setting [8] is reported as 6.5. The pKi_value (receptor p2y12_human (P2RY12), P2Y receptors) is 5.9.

Regarding `Nc1ncnc2c1ncn2[C@@H]1O[C@H](COP(=O)(O)OP(=O)(O)OP(=O)(O)O)[C@@H](O)[C@H]1O` [ATP], the pIC50_value reads like this: under setting [7], 7.8; under setting [8], 5.4. Besides, the pKi_value under setting [7] is on record as 4.8. The pEC50_value was 7.1 under setting [1], 5.4 under setting [2] and 5.6 under setting [3]. Moreover, under setting [2], the pKd_value is 6.2.

`N[C@@H](CCC(=O)O)C(=O)O` [L-glutamic acid]: the pEC50_value is, setting by setting: (receptor grm1_human (GRM1, Q13255)) 5; under setting [9], 5.4; under setting [10], 5.4; (receptor grm4_human (GRM4, Q14833)) 5.5; (receptor grm5_human (GRM5, P41594)) 5.5; (receptor grm6_human (GRM6, O15303)) 5.2. Moreover, the pEC50_value by setting is: under setting [11], 3; under setting [12], 5.6. In addition, the pKi_value runs as follows: under setting [9], 4.9; under setting [10], 7.4; under setting [11], 3.1. Under setting [12], the pIC50_value is 5.7.

Regarding `C[C@H](O)C(=O)O` [L-lactic acid], the pEC50_value (receptor hcar1_human (HCAR1), Hydroxycarboxylic acid receptors) was 2.9.

With `CCCCC/C=C\C[C@@H](O)/C=C/C=C/C=C\[C@@H](O)CCCC(=O)O` [LTB4], under setting [5], the pEC50_value was 6.8, the pIC50_value was 7.6 and the pKd_value is recorded as 7.6. Under setting [6], the pKi_value is reported as 9.4.

For the compound `CCCCC/C=C\C\C=C/C=C/C=C/[C@@H](SC[C@H](NC(=O)CC[C@H](N)C(=O)O)C(=O)NCC(=O)O)[C@@H](O)CCCC(=O)O` [LTC4], under setting [13], the pEC50_value was 7.7, the pIC50_value was 6.5 and the pKi_value is 8.1. Also, under setting [14], the pEC50_value was 7.3 and the pIC50_value is 8.5.

Turning to `CCCCC/C=C\C\C=C/C=C/C=C/[C@@H](SC[C@H](N)C(=O)NCC(=O)O)[C@@H](O)CCCC(=O)O` [LTD4], under setting [13], the pEC50_value was 8.5 and the pIC50_value is given as 8.1. Moreover, under setting [14], the pEC50_value was 7.4, the pIC50_value was 8.1 and the pKi_value is 8.1.

Turning to `CCCCC/C=C\C\C=C/C=C/C=C/[C@@H](SC[C@H](N)C(=O)O)[C@@H](O)CCCC(=O)O` [LTE4], under setting [13], the pEC50_value is given as 6.7, the pIC50_value is 7 and the pKi_value is 7.8. Under setting [14], the pEC50_value was 5.9, the pIC50_value is recorded as 5.7 and the pKi_value is listed as 6.5.

Take `CCCCC[C@H](O)/C=C/C=C\C=C\C=C\[C@@H](O)[C@@H](O)CCCC(=O)O` [LXA4]: under setting [15], the pEC50_value is 12 and the pKd_value is reported as 9.3.

`CCCCCCCC/C=C\CCCCCCCC(=O)NCCO` [N-oleoylethanolamide]: for the setting “receptor GPR119 (gp119_human, Q8TDV5)”, the pEC50_value was 6.3.

Turning to `CCCCCCCCCCCCCCCCOC[C@H](COP(=O)([O-])OCC[N+](C)(C)C)OC(C)=O` [PAF], under setting [16], the pIC50_value is recorded as 8.2 and the pKi_value is 7.9.

Take `CCCCC[C@H](O)/C=C/[C@H]1C(=O)C[C@H](O)[C@@H]1C/C=C\CCCC(=O)O` [PGD2]: the pKi_value by setting is: under setting [17], 8.6; under setting [18], 9.2; (receptor PTGER1 (pe2r1_human, P34995)) 4.7; under setting [19], 5; under setting [20], 9; under setting [21], 7.7. For the same compound, the pEC50_value under setting [20] was 8.8.

Take `CCCCC[C@H](O)/C=C/[C@H]1[C@H](O)CC(=O)[C@@H]1C/C=C\CCCC(=O)O` [PGE2]: the pKi_value is, setting by setting: under setting [17], 5.3; under setting [18], 7; under setting [22], 8; under setting [19], 8.3; under setting [23], 9.5; under setting [20], 9.1. In addition, the pKi_value by setting is: under setting [21], 6.9; under setting [24], 4.5. In addition, under setting [23], the pKd_value was 8.7. Moreover, the pEC50_value under setting [20] is 6.1.

For `CCCCC[C@H](O)/C=C/[C@@H]1[C@@H](C/C=C\CCCC(=O)O)[C@@H](O)C[C@H]1O` [PGF2α], the pKi_value is, setting by setting: under setting [17], 6.4; under setting [18], 6.4; under setting [22], 6.3; under setting [19], 6; under setting [23], 7.4; under setting [20], 9.5. For the same compound, the pKi_value is, setting by setting: under setting [21], 8.5; under setting [24], 5.1. Also, under setting [20], the pEC50_value is 6.1.

As for `CCCCC[C@H](O)/C=C/[C@@H]1[C@H]2C/C(=C/CCCC(=O)O)O[C@H]2C[C@H]1O` [PGI2], the pKi_value by setting is: under setting [22], 4.8; under setting [20], 5.1; (receptor pi2r_human (PTGIR), Prostanoid receptors) 7.8.
